According to patent publication EP4745137A1 (Gluetacs Therapeutics (Shanghai) Co., Ltd., priority 2023, dated 2025):

What was measured:
Assay type in all cases: cell-based
Conditions in all cases: 24 hours of compound treatment, 50 nM and 500 nM tested (concentration behind the class not stated)
[1] = biological target: T1, GSPT1 (Homo sapiens, UniProt P15170+Q96SW2); test: Western-blot assay of substrate protein degradation in hPBMCs, GSPT1
T1 construct: endogenous in cells; host or cells: hPBMCs (Milecell Biotechnologies)
T1 sequence (P15170 whole entry): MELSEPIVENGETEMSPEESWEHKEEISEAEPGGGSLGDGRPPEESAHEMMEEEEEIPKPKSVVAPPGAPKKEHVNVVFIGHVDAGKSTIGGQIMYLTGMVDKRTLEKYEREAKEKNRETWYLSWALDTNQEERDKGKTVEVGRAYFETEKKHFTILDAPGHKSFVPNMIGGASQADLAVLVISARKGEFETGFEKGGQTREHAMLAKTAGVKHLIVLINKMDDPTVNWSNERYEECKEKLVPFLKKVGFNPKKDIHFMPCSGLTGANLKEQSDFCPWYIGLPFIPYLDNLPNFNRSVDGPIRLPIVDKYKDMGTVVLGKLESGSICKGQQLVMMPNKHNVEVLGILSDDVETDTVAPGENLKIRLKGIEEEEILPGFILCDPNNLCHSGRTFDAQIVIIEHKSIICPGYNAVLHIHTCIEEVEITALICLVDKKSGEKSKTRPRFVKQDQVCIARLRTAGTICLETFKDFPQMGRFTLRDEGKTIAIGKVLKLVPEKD
T1 sequence (Q96SW2 whole entry): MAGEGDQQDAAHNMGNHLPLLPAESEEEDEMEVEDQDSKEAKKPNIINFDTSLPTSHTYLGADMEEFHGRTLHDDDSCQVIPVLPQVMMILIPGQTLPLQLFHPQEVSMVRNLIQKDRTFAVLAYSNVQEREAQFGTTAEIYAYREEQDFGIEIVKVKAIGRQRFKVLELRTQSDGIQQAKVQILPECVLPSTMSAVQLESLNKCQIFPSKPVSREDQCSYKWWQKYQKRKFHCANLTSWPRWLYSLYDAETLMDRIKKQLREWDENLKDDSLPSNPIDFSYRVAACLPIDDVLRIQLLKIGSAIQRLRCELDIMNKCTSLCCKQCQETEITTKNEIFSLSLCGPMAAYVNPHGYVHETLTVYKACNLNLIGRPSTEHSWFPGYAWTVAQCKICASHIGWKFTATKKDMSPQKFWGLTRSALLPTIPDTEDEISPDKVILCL
T1 sequence (Q16531 whole entry partner): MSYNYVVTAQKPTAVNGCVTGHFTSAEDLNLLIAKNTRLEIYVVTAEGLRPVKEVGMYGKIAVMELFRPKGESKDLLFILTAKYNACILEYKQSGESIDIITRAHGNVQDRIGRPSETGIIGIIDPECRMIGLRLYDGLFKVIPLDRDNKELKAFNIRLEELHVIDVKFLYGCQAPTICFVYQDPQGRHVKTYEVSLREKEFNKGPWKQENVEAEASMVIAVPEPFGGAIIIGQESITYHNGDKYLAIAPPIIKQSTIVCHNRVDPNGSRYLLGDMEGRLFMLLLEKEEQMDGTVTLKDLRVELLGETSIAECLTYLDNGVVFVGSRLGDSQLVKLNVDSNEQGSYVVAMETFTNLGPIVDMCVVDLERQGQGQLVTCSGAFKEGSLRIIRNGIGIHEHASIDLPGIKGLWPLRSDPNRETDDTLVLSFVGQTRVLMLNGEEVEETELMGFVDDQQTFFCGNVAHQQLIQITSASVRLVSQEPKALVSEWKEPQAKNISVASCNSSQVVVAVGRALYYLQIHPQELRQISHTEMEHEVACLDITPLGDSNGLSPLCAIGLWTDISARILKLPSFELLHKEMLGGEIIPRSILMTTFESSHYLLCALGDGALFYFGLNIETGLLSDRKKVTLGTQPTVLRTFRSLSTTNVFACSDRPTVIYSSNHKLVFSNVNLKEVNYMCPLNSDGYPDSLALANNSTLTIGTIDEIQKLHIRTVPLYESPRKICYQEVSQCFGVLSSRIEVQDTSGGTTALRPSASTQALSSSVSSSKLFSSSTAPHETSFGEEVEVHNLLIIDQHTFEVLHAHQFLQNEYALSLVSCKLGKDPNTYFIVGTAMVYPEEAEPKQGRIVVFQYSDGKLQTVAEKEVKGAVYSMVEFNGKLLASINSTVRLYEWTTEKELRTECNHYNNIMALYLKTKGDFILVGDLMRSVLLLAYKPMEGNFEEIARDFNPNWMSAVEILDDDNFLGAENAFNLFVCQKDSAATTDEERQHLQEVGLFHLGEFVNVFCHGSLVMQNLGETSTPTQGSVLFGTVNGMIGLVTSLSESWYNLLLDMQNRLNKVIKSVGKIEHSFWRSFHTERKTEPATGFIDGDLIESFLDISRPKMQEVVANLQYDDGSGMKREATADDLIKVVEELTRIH

[2] = biological target: T2, WEE1 (Homo sapiens, UniProt P30291+Q96SW2); test: Western-blot assay of substrate protein degradation in hPBMCs, WEE1
T2 construct: endogenous in cells; host or cells: hPBMCs (Milecell Biotechnologies)
T2 sequence (P30291 whole entry): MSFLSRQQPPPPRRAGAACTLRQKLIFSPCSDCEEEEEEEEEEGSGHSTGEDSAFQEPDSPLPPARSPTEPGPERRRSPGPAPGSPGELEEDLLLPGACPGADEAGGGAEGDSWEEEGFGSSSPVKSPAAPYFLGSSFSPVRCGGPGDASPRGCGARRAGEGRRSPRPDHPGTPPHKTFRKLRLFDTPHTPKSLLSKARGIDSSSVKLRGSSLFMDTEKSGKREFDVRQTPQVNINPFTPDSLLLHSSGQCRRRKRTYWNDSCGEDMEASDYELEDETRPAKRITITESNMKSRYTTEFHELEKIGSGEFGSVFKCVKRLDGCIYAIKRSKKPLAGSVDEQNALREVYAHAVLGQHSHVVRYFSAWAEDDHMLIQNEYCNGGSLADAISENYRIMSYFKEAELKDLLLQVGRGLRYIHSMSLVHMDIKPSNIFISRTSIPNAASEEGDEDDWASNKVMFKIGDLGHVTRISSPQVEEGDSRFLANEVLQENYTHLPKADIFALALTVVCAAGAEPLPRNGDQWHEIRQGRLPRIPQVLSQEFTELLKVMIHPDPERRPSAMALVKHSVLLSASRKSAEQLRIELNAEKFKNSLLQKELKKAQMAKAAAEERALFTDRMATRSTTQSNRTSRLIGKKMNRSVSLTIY
T2 sequence (Q96SW2 whole entry): as the sequence (Q96SW2 whole entry) above
T2 sequence (Q16531 whole entry partner): as the sequence (Q16531 whole entry partner) above

[3] = biological target: T3, IKZF2 (Homo sapiens, UniProt Q96SW2+Q9UKS7); test: Western-blot assay of substrate protein degradation in hPBMCs, IKZF2
T3 construct: endogenous in cells; host or cells: hPBMCs (Milecell Biotechnologies)

[4] = biological target: T4, IKZF3 (Homo sapiens, UniProt Q96SW2+Q9UKT9); test: Western-blot assay of substrate protein degradation in hPBMCs, IKZF3
T4 construct: endogenous in cells; host or cells: hPBMCs (Milecell Biotechnologies)
T4 sequence (Q9UKT9 whole entry): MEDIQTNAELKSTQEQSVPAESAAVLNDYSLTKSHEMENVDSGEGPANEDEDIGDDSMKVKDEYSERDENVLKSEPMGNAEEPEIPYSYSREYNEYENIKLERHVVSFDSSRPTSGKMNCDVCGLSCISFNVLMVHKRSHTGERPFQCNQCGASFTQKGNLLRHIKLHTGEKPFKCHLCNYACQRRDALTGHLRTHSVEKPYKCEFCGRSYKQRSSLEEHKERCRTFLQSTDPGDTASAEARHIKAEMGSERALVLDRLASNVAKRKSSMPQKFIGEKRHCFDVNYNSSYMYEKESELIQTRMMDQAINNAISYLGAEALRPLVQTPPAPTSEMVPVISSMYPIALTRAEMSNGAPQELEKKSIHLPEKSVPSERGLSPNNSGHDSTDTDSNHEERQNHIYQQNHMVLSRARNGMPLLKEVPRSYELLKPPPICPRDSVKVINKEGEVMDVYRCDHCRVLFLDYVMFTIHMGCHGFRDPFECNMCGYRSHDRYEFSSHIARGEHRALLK
T4 sequence (Q96SW2 whole entry): as the sequence (Q96SW2 whole entry) above
T4 sequence (Q16531 whole entry partner): as the sequence (Q16531 whole entry partner) above

[5] = biological target: T5, CK1α (Homo sapiens, UniProt P48729+Q96SW2); test: Western-blot assay of substrate protein degradation in hPBMCs, CK1α
T5 construct: endogenous in cells; host or cells: hPBMCs (Milecell Biotechnologies)
T5 sequence (P48729 whole entry): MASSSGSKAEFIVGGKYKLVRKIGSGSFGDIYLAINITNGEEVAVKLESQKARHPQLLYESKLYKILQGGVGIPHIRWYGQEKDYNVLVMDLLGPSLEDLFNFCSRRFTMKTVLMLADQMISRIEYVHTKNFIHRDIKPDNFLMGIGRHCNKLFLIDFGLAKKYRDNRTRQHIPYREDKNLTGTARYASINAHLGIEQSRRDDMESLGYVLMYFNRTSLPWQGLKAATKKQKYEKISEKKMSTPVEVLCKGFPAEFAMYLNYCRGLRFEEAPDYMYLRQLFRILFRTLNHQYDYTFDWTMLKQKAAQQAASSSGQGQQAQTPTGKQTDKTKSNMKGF
T5 sequence (Q96SW2 whole entry): as the sequence (Q96SW2 whole entry) above
T5 sequence (Q16531 whole entry partner): as the sequence (Q16531 whole entry partner) above

[6] = biological target: T6, IKZF1 (Homo sapiens, UniProt Q13422+Q96SW2); test: Western-blot assay of substrate protein degradation in hPBMCs, IKZF1
T6 construct: endogenous in cells; host or cells: hPBMCs (Milecell Biotechnologies)
T6 sequence (Q13422 whole entry): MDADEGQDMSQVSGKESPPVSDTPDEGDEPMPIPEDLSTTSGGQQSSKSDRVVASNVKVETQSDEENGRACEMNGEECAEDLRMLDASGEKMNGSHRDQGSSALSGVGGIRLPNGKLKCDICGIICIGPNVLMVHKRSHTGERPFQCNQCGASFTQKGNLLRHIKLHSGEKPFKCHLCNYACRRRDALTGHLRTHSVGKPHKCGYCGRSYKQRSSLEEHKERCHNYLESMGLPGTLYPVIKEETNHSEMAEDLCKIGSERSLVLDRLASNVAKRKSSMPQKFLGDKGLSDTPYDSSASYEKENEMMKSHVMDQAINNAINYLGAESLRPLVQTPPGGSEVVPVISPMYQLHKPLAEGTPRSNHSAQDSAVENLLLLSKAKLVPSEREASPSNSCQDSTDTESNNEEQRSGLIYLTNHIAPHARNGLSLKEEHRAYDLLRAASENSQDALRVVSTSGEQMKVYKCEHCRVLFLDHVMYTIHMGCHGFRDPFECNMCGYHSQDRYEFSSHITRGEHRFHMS
T6 sequence (Q96SW2 whole entry): as the sequence (Q96SW2 whole entry) above
T6 sequence (Q16531 whole entry partner): as the sequence (Q16531 whole entry partner) above

Structure (SMILES)	GSPT1 substrate protein remaining % [1]	Weel substrate protein remaining % [2]	IKZF2 substrate protein remaining % [3]	IKZF3 substrate protein remaining % [4]	CK1a substrate protein remaining % [5]	IKZF 1 substrate protein remaining % [6]
O=C1CCC(N2C(=O)c3ccc(CN4CCC(c5cccc(Cl)c5Cl)CC4)cc3C2=O)C(=O)N1 (stereo not drawn) [GT-06358, 5-((4-(2,3-dichlorophenyl)piperidin-1-yl)methyl)-2-(2,6-dioxopiperidin-3-yl)isoindoline-1,3-dione]	A (0% ≤ substrate protein remaining % ≤ 80%)	A (0% ≤ substrate protein remaining % ≤ 80%)	A (0% ≤ substrate protein remaining % ≤ 80%)	B (80%< substrate protein remaining %≤ 100%)	B (80%< substrate protein remaining %≤ 100%)	A (0% ≤ substrate protein remaining % ≤ 80%)
O=C1CCC(N2C(=O)c3ccc(CN4CCC(c5cccc(F)c5F)CC4)cc3C2=O)C(=O)N1 (stereo not drawn) [GT-06359, 5-((4-(2,3-difluorophenyl)piperidin-1-yl)methyl)-2-(2,6-dioxopiperidin-3-yl)isoindoline-1,3-dione]	A (0% ≤ substrate protein remaining % ≤ 80%)	A (0% ≤ substrate protein remaining % ≤ 80%)	A (0% ≤ substrate protein remaining % ≤ 80%)	B (80%< substrate protein remaining %≤ 100%)	B (80%< substrate protein remaining %≤ 100%)	A (0% ≤ substrate protein remaining % ≤ 80%)
O=C1CCC(N2C(=O)c3ccc(CN4CCC(c5cccc(F)c5Cl)CC4)cc3C2=O)C(=O)N1 (stereo not drawn) [GT-06360, 5-((4-(2-chloro-3-fluorophenyl)piperidin-1-yl)methyl)-2-(2,6-dioxopiperidin-3-yl)isoindoline-1,3-dione]	A (0% ≤ substrate protein remaining % ≤ 80%)	A (0% ≤ substrate protein remaining % ≤ 80%)	A (0% ≤ substrate protein remaining % ≤ 80%)	B (80%< substrate protein remaining %≤ 100%)	B (80%< substrate protein remaining %≤ 100%)	A (0% ≤ substrate protein remaining % ≤ 80%)
O=C1CCC(N2C(=O)c3ccc(CN4CCN(c5ccc(F)cc5F)CC4)cc3C2=O)C(=O)N1 (stereo not drawn) [GT-06361, 5-((4-(2,4-difluorophenyl)piperazin-1-yl)methyl)-2-(2,6-dioxopiperidin-3-yl)isoindoline-1,3-dione]	A (0% ≤ substrate protein remaining % ≤ 80%)	B (80%< substrate protein remaining %≤ 100%)	B (80%< substrate protein remaining %≤ 100%)	B (80%< substrate protein remaining %≤ 100%)	B (80%< substrate protein remaining %≤ 100%)	B (80%< substrate protein remaining %≤ 100%)
O=C1CCC(N2C(=O)c3ccc(CN4CCN(c5cc(F)ccc5F)CC4)cc3C2=O)C(=O)N1 (stereo not drawn) [GT-06362, 5-((4-(2,5-difluorophenyl)piperazin-1-yl)methyl)-2-(2,6-dioxopiperidin-3-yl)isoindoline-1,3-dione]	A (0% ≤ substrate protein remaining % ≤ 80%)	B (80%< substrate protein remaining %≤ 100%)	B (80%< substrate protein remaining %≤ 100%)	B (80%< substrate protein remaining %≤ 100%)	B (80%< substrate protein remaining %≤ 100%)	B (80%< substrate protein remaining %≤ 100%)
O=C1CCC(N2C(=O)c3ccc(CN4CCN(c5c(F)cccc5F)CC4)cc3C2=O)C(=O)N1 (stereo not drawn) [GT-06363, 5-((4-(2,6-difluorophenyl)piperazin-1-yl)methyl)-2-(2,6-dioxopiperidin-3-yl)isoindoline-1,3-dione]	A (0% ≤ substrate protein remaining % ≤ 80%)	B (80%< substrate protein remaining %≤ 100%)	B (80%< substrate protein remaining %≤ 100%)	B (80%< substrate protein remaining %≤ 100%)	B (80%< substrate protein remaining %≤ 100%)	A (0% ≤ substrate protein remaining % ≤ 80%)
O=C1CCC(N2C(=O)c3ccc(CN4CCN(c5ccc(F)c(F)c5)CC4)cc3C2=O)C(=O)N1 (stereo not drawn) [GT-06364, 5-((4-(3,4-difluorophenyl)piperazin-1-yl)methyl)-2-(2,6-dioxopiperidin-3-yl)isoindoline-1,3-dione]	A (0% ≤ substrate protein remaining % ≤ 80%)	B (80%< substrate protein remaining %≤ 100%)	B (80%< substrate protein remaining %≤ 100%)	B (80%< substrate protein remaining %≤ 100%)	B (80%< substrate protein remaining %≤ 100%)	B (80%< substrate protein remaining %≤ 100%)
O=C1CCC(N2C(=O)c3ccc(CN4CCN(c5cc(F)cc(F)c5)CC4)cc3C2=O)C(=O)N1 (stereo not drawn) [GT-06365, 5-((4-(3,5-difluorophenyl)piperazin-1-yl)methyl)-2-(2,6-dioxopiperidin-3-yl)isoindoline-1,3-dione]	A (0% ≤ substrate protein remaining % ≤ 80%)	B (80%< substrate protein remaining %≤ 100%)	B (80%< substrate protein remaining %≤ 100%)	B (80%< substrate protein remaining %≤ 100%)	B (80%< substrate protein remaining %≤ 100%)	B (80%< substrate protein remaining %≤ 100%)
Cc1ccc(N2CCN(Cc3ccc4c(c3)C(=O)N(C3CCC(=O)NC3=O)C4=O)CC2)c(C)c1 (stereo not drawn) [GT-06366, 5-((4-(2,4-dimethylphenyl)piperazin-1-yl)methyl)-2-(2,6-dioxopiperidin-3-yl)isoindoline-1,3-dione]	A (0% ≤ substrate protein remaining % ≤ 80%)	B (80%< substrate protein remaining %≤ 100%)	A (0% ≤ substrate protein remaining % ≤ 80%)	A (0% ≤ substrate protein remaining % ≤ 80%)	B (80%< substrate protein remaining %≤ 100%)	B (80%< substrate protein remaining %≤ 100%)
Cc1ccc(Cl)cc1N1CCN(Cc2ccc3c(c2)C(=O)N(C2CCC(=O)NC2=O)C3=O)CC1 (stereo not drawn) [GT-06367, 5-((4-(5-chloro-2-methylphenyl)piperazin-1-yl)methyl)-2-(2,6-dioxopiperidin-3-yl)isoindoline-1,3-dione]	A (0% ≤ substrate protein remaining % ≤ 80%)	A (0% ≤ substrate protein remaining % ≤ 80%)	A (0% ≤ substrate protein remaining % ≤ 80%)	A (0% ≤ substrate protein remaining % ≤ 80%)	B (80%< substrate protein remaining %≤ 100%)	B (80%< substrate protein remaining %≤ 100%)
O=C1CCC(N2C(=O)c3ccc(CN4CCC(c5ccccc5)CC4)cc3C2=O)C(=O)N1 (stereo not drawn) [GT-06368, 2-(2,6-dioxopiperidin-3-yl)-5-((4-phenylpiperidin-1-yl)methyl)isoindoline-1,3-dione]	A (0% ≤ substrate protein remaining % ≤ 80%)	A (0% ≤ substrate protein remaining % ≤ 80%)	A (0% ≤ substrate protein remaining % ≤ 80%)	A (0% ≤ substrate protein remaining % ≤ 80%)	A (0% ≤ substrate protein remaining % ≤ 80%)	B (80%< substrate protein remaining %≤ 100%)
O=C1CCC(N2C(=O)c3ccc(CN4CCC(c5cccc(Br)c5)CC4)cc3C2=O)C(=O)N1 (stereo not drawn) [GT-06369, 5-((4-(3-bromophenyl)piperidin-1-yl)methyl)-2-(2,6-dioxopiperidin-3-yl)isoindoline-1,3-dione]	A (0% ≤ substrate protein remaining % ≤ 80%)	A (0% ≤ substrate protein remaining % ≤ 80%)	A (0% ≤ substrate protein remaining % ≤ 80%)	A (0% ≤ substrate protein remaining % ≤ 80%)	A (0% ≤ substrate protein remaining % ≤ 80%)	A (0% ≤ substrate protein remaining % ≤ 80%)
O=C1CCC(N2C(=O)c3ccc(CN4CCC(c5ccc(Br)cc5)CC4)cc3C2=O)C(=O)N1 (stereo not drawn) [GT-06370, 5-((4-(4-bromophenyl)piperidin-1-yl)methyl)-2-(2,6-dioxopiperidin-3-yl)isoindoline-1,3-dione]	A (0% ≤ substrate protein remaining % ≤ 80%)	A (0% ≤ substrate protein remaining % ≤ 80%)	A (0% ≤ substrate protein remaining % ≤ 80%)	A (0% ≤ substrate protein remaining % ≤ 80%)	A (0% ≤ substrate protein remaining % ≤ 80%)	B (80%< substrate protein remaining %≤ 100%)
